Assay results: patent US20250302783A1, “SYMPATHETIC NERVE ACTIVATION AGENT AND SYMPATHETIC NERVE ACTIVATION COMPOSITION” (MARUZEN PHARMACEUTICALS CO., LTD., priority 2022, published 2025)

Key:
[1] = tested on: distal branches of the sympathetic nerve innervating the right epididymal white adipose tissue; experiment: White adipose tissue sympathetic nerve activity (WAT-SNA) after intragastric administration, Test Example 1; format: in vivo, rat; details: urethane-anesthetized male rats, measured for 60 minutes, FIG. 1
Procedure: The effect of the intragastric administration of the compound represented by Structural Formula (1) on the activity of the sympathetic nerve innervating the white adipose tissue, the brown adipose tissue, the adrenal gland, or the liver was tested in the following manner. For the experiment, male Whistar rats (approximately 9 weeks old) each having a body weight of approximately 300 g were kept in a 24° C. thermostatic animal room for 1 week or longer with a 12-hour light-dark cycle (lighting from 8:00 to 20:00). On the day of the experiment, the rats were fasted for 3 hours, followed by anesthetizing with urethane. A cannula for intragastric administration was inserted into each of the rats, and then distal branches of the sympathetic nerve innervating the right epididymal white adipose tissue, the interscapular brown adipose tissue, the left adrenal gland, or the liver were lifted with a silver electrode, and the electrical activity thereof was measured. […] In addition, as a control, water serving as a solvent was intragastrically administered using the cannula at a dose of 0.5 mL/300 g of body weight, and the change in the neural activity of the distal branches of the above sympathetic nerves was measured electrophysiologically for 60 minutes. […]

[2] = tested on: distal branches of the sympathetic nerve innervating the liver; experiment: Hepatic sympathetic nerve activity (Hepatic-SNA) after intragastric administration, Test Example 1; format: in vivo, rat; details: urethane-anesthetized male rats, measured for 60 minutes, FIG. 4
Procedure: The effect of the intragastric administration of the compound represented by Structural Formula (1) on the activity of the sympathetic nerve innervating the white adipose tissue, the brown adipose tissue, the adrenal gland, or the liver was tested in the following manner. For the experiment, male Whistar rats (approximately 9 weeks old) each having a body weight of approximately 300 g were kept in a 24° C. thermostatic animal room for 1 week or longer with a 12-hour light-dark cycle (lighting from 8:00 to 20:00). On the day of the experiment, the rats were fasted for 3 hours, followed by anesthetizing with urethane. A cannula for intragastric administration was inserted into each of the rats, and then distal branches of the sympathetic nerve innervating the right epididymal white adipose tissue, the interscapular brown adipose tissue, the left adrenal gland, or the liver were lifted with a silver electrode, and the electrical activity thereof was measured. When the measurement value stabilized (at approximately 13:00), an aqueous solution of the compound represented by Structural Formula (1) (produced by Tokyo Chemical Industry Co., Ltd.) was intragastrically administered using the cannula at a dose of 15 mg/0.5 mL/300 g of body weight, 1.5 mg/0.5 mL/300 g of body weight, 0.15 mg/0.5 mL/300 g of body weight, or 0.015 mg/0.5 mL/300 g of body weight, and the change in the neural activity of the distal branches of the above sympathetic nerves was measured electrophysiologically for 60 minutes. In addition, as a control, water serving as a solvent was intragastrically administered using the cannula at a dose of 0.5 mL/300 g of body weight, and the change in the neural activity of the distal branches of the above sympathetic nerves was measured electrophysiologically for 60 minutes. […] The data of the neural activity was analyzed as the mean value of the firing rate per 5 seconds (pulse/5 s) every 5 minutes, and represented by a percentage relative to the mean value (a value at 0 minutes) at 5 minutes before the onset of stimulation being determined as 100%. […]

[3] = 1.5 mg/0.5 mL/300 g of body weight
[4] = 15 mg/0.5 mL/300 g of body weight

SMILES: COc1cc(CCC(=O)O)ccc1O [3-(4-hydroxy-3-methoxyphenyl) propionic acid]
- change in white adipose tissue sympathetic nerve activity (WAT-SNA) versus water control [1, 3]: higher than the WAT-SNA value of the group to which water serving as the solvent was administered
- change in white adipose tissue sympathetic nerve activity (WAT-SNA) versus water control [1, 4]: higher than the WAT-SNA value of the group to which water serving as the solvent was administered
- change in hepatic sympathetic nerve activity (Hepatic-SNA) versus water control ([2]; 0.15 mg/0.5 mL/300 g of body weight): higher than the Hepatic-SNA value of the group to which water serving as the solvent was administered
- change in hepatic sympathetic nerve activity (Hepatic-SNA) versus water control [2, 3]: higher than the Hepatic-SNA value of the group to which water serving as the solvent was administered
- change in hepatic sympathetic nerve activity (Hepatic-SNA) versus water control [2, 4]: higher than the Hepatic-SNA value of the group to which water serving as the solvent was administered
